Measured values published in US20210293825A1, “METHODS FOR PRECISION THERAPEUTIC TARGETING OF HUMAN CANCER CELL MOTILITY AND KITS THEREOF” (UNITED STATES GOVERNMENT AS REPRESENTED BY THE DEPARTMENT …, priority 2018, published 2021).

Columns and labels:
[1] = tested on: recombinant human protein kinases; assay: Kinex kinase assay system (inhibition of ATP binding); details: tested at 1 and 10 μM
Description: Kinase assay system #2. The Kinex™ kinase assay system (Kinexus Proteomics Company). This platform uses recombinant human protein kinases expressed in an insect expression system, thus allowing an avenue for post-translational modification. Also, this platform measures inhibition of ATP binding. This platform putatively measured 200 different kinases, and we tested KBU2046 at 1 and 10 μM. […] There were two important technical issues. First, at 10 μM KBU2046 interfered with the colorimetric-based readout of the assay. […] Conclusions: there was no evidence that KBU2046 inhibits kinase function by competing for ATP binding in the active site.

MKK4 = biological target: T1, MKK4 (Homo sapiens, UniProt P45985, S257E/T261E); assay: MKK4 in vitro kinase assay; format: biochemical; details: phosphorylation of kinase dead p38a MAPK
T1 sequence (P45985 37-399 S257E/T261E): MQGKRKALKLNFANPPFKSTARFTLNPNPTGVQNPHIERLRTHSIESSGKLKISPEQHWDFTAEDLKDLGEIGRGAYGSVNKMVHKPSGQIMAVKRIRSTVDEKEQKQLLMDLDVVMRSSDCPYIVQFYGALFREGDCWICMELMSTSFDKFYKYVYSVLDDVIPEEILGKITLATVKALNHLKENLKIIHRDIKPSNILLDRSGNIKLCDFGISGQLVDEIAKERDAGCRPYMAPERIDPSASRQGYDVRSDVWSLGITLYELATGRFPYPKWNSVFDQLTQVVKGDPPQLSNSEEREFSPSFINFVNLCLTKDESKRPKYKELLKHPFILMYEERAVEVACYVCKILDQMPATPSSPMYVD
Description: FIG. 16a is a depiction of established MKK4 pathway regulating human PCa cell metastasis. […] Values are the mean±SD (of N=2 replicates) increase in melting temperature (ΔTm) of purified recombinant MKK4 induced by the indicated concentrations of KBU2046 or genistein. […] The indicated concentrations of KBU2046 were added to recombinant activated MKK4, and its ability to phosphorylate kinase dead p38a MAPK (K53A) was measured by Western blot for total (p38 MAPK) and phosphorylated (pp38 MAPK) forms of p38 MAPK. […] PC3-M cells were pre-treated for 24 hours with 50 μM KBU2046 or genistein, as indicated, then with TGFβ, and Western blot performed. These findings are from a single experiment, with similar findings in identical separate experiments, repeated at least once.
In Vitro Kinase Assays. MEK4/MKK4/MAP2K4 in vitro kinase assay was performed as described (Krishna, S. N. et al., PLoS One 8, e81504 (2013)). HSP90β/CDC37 heterocomplex kinase assays with RAF1, SGK3 and MAP3K6 assays incubated indicated proteins in 20 mM MOPS, pH 7.2, 25 mM β-glycerol phosphate, 5 mM EGTA, 1 mM sodium orthovanadate, 1 mM dithiothreitol, 0.25 mM ATP and 37.5 mM MgCl2 at 30° C. for the indicated times.

[2] = tested on: 442 kinases, including 400 distinct parental kinases plus mutants; assay: KINOMEscan assay (Ambit Biosciences); format: binding; details: tested at 10 μM
Source text: Kinase assay system #1. The KINOMEscan™ assay (Ambit Biosciences). This assay evaluates 442 kinases, including 400 distinct parental kinases plus mutants known to alter activity or responsiveness. It does so in the context of an assay that measures the ability of putative inhibitors to inhibit binding of bacterial purified kinase to immobilized phospho-acceptor protein substrate. This approach has been successfully to identify kinase interactions of several small molecule kinase inhibitors (Fabian, M. A. et al., Nat Biotechnol 23, 329-36 (2005); and Karaman, M. W. et al., Nat Biotechnol 26, 127-32 (2008)). KBU2046 was tested at 10 μM. […] There were two initial false positives (for a false positive rate of 0.4%), that were subsequently found to be negative in a dedicated follow up analysis. Specific and important negative findings include MKK4, p38 MAPK (α, β, γ and δ isoforms) and RAF1. Conclusions: there was no evidence that KBU2046 inhibits kinase function by competing for phospho-acceptor binding.

[3] = Examination of organ function after a single intravenous dose; format: in vivo; details: single IV dose 15, 75 or 125 mg/kg, day 8 and 14
Description: Histologic examination of tissue. Organs of athymic male mice stained with H&E, Trichrome or Giemsa were microscopically examined by a mouse pathologist in a blinded fashion, and toxicity scored using an established semi-quantitative histological scoring system (Knodell, R. G. et al., Hepatology 1, 431-5 (1981)) (FIG. 14). The following clinical chemistry parameters were measured in blood of CD1 male and female mice by Charles River Research Animal Diagnostic Services: cholesterol, triglycerides, alanine aminotransferase (ALT), aspartate aminotransferase (AST), total bilirubin, glucose, phosphorus, total protein, calcium, blood urea nitrogen (BUN), creatinine, albumin, Na, K, Cl, white blood cells (with differential), red blood cells, hemoglobin, and platelets.
For examination of organ function, studies used cohorts of 22-24 gm N=3 female and N=3 male (i.e., N=6 mice total per dose cohort) CD1 (ICR) mice (Charles River). […] On day 8 and 14, important organs were weighed, and the following parameters measured in blood: cholesterol, triglycerides, alanine aminotransferase (ALT), aspartate aminotransferase (AST), total bilirubin, glucose, phosphorus, total protein, calcium, blood urea nitrogen (BUN), creatinine, albumin, Na, K, Cl, white blood cells (with differential), red blood cells, hemoglobin, platelets.

O=C1c2ccccc2OCC1c1ccc(F)cc1 (racemic) [KBU2046, (±)-3(4-fluorophenyl)chroman-4-one]
inhibition of ATP binding [1]: completely negative | inhibition of MKK4 kinase activity (MKK4): does not inhibit MKK4 | inhibition of kinase binding to immobilized phospho-acceptor substrate [2]: completely negative | organ weights and blood parameters [3]: No abnormal alterations in any of these parameters were observed
